The results in this text go back to PubChem BioAssay (NCI).

Where “and” joins values, the source holds several entries; their conditions need not be identical. Equal values may be shown once.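 96-well plates; 48 h exposure; 5 concentrations. Endpoints by linear interpolation between flanking doses. Not reached: highest tested concentration assigned. GI50 is the concentration that inhibits growth by half. TGI denotes the concentration required for complete inhibition of growth.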

Test systems include BT-549 breast; EKVX NSCLC; HOP-62 NSCLC; K-562 leukemia; KM12 colon; NCI-H460 lung; RPMI-8226 leukemia; RXF 393 renal; SK-MEL-5 melanoma; SK-OV-3 ovarian.
Assay in all cases: NCI tumour cell line growth inhibition, 48 h

Turning to `O=C(O)CSc1cc(NS(=O)(=O)c2ccc(Br)cc2)c2ccccc2c1O`, the GI50 with BT-549 breast was 16.2 µM; in the assay with EKVX NSCLC it was 13.8 µM; with HOP-62 NSCLC, 17.9 µM; in the assay on K-562 leukemia, 19.7 µM; in the assay on KM12 colon it was 11.6 µM; in the assay with NCI-H460 lung, 18.8 µM. Also, the GI50 is 5.33 µM in the assay on RPMI-8226 leukemia, 13.8 µM in the assay with RXF 393 renal, 14.7 µM with SK-MEL-5 melanoma and 18.7 µM with SK-OV-3 ovarian. Moreover, the TGI in the assay on BT-549 breast was 30.5 µM; in the assay with EKVX NSCLC it was 32.8 µM; with HOP-62 NSCLC, 31.9 µM; in the assay with K-562 leukemia it was over 59.6 µM; in the assay with KM12 colon it was 25.7 µM; in the assay with NCI-H460 lung, 37.4 µM. The TGI with RPMI-8226 leukemia worked out at 29.9 µM; in the assay with RXF 393 renal, 27.9 µM; with SK-MEL-5 melanoma it was 27.9 µM; in the assay on SK-OV-3 ovarian, 33.2 µM.
As to `Oc1c(Br)cc(Cl)cc1C(c1cc(Cl)cc(Br)c1O)C(Cl)(Cl)Cl`, the GI50 in the assay with BT-549 breast is 3.22 µM; with EKVX NSCLC it was 2.72 µM; in the assay with HOP-62 NSCLC, 3.02 µM; in the assay on K-562 leukemia, 0.832 µM; in the assay on KM12 colon, 2.8 µM; with NCI-H460 lung, 2.4 µM. Moreover, the GI50 is 0.961 µM in the assay with RPMI-8226 leukemia, 2.73 µM in the assay on RXF 393 renal, 1.64 µM in the assay on SK-MEL-5 melanoma and 2.94 µM in the assay with SK-OV-3 ovarian. Further, the TGI was 10.1 µM with BT-549 breast; 11.3 µM in the assay with EKVX NSCLC; 9.16 µM in the assay on HOP-62 NSCLC; 16.8 µM in the assay on K-562 leukemia; 9.3 µM in the assay on KM12 colon; 8.53 µM in the assay with NCI-H460 lung. Besides, the TGI came to 6.47 µM with RPMI-8226 leukemia, 8.77 µM with RXF 393 renal, 3.83 µM in the assay on SK-MEL-5 melanoma and 8.93 µM with SK-OV-3 ovarian.
With `CN1CCN(C(=O)/C=C/c2ccc([N+](=O)[O-])o2)CC1`, the GI50 was 10.1 µM with BT-549 breast; 23.2 µM in the assay with EKVX NSCLC; 17.1 µM in the assay with HOP-62 NSCLC; 11 µM in the assay on K-562 leukemia; 24 µM in the assay on KM12 colon; 14.9 µM in the assay with NCI-H460 lung. Further, the GI50 was 16 µM in the assay on RPMI-8226 leukemia, 2.88 µM in the assay on RXF 393 renal, 7.52 µM with SK-MEL-5 melanoma and 29 µM in the assay with SK-OV-3 ovarian. The TGI in the assay on BT-549 breast was 21.8 µM; with EKVX NSCLC it was 87.6 µM; in the assay with HOP-62 NSCLC, 39.9 µM; in the assay on K-562 leukemia, 40.4 µM; with KM12 colon it was over 100 µM; in the assay with NCI-H460 lung, 45.1 µM. For the same molecule, the TGI is 64.5 µM with RPMI-8226 leukemia, 12.4 µM in the assay on RXF 393 renal, 20.4 µM in the assay with SK-MEL-5 melanoma and over 100 µM in the assay on SK-OV-3 ovarian.
Consider `CC[C@]12C=CCN3CC[C@@]4(c5ccc(OC)cc5N(C)[C@H]4[C@@](O)(C(=O)OC)[C@@H]1OC(=O)CCCN1CCN(CCCC(=O)O[C@@H]4[C@]5(CC)C=CCN6CC[C@@]7(c8ccc(OC)cc8N(C)[C@H]7[C@@]4(O)C(=O)OC)[C@@H]65)CC1)[C@@H]32`, for which the GI50 is 1.78 µM with BT-549 breast; 1.44 µM with EKVX NSCLC; 1.28 µM in the assay with HOP-62 NSCLC; 0.18 µM in the assay on K-562 leukemia; 0.985 µM with KM12 colon; 1.11 µM in the assay with NCI-H460 lung. Also, the GI50 in the assay with RPMI-8226 leukemia is 0.547 µM; with RXF 393 renal, 0.484 µM; in the assay on SK-MEL-5 melanoma, 1.48 µM; with SK-OV-3 ovarian, 2.07 µM. For the same molecule, the TGI in the assay on BT-549 breast turned out to be 3.33 µM; in the assay on EKVX NSCLC it was 2.97 µM; in the assay with HOP-62 NSCLC, 2.81 µM; with K-562 leukemia, 0.365 µM; in the assay on KM12 colon it was 2.31 µM; in the assay with NCI-H460 lung, 2.5 µM. Further, the TGI in the assay on RPMI-8226 leukemia stood at 2.26 µM; in the assay on RXF 393 renal it was 1.72 µM; with SK-MEL-5 melanoma, 2.83 µM; with SK-OV-3 ovarian it was 3.63 µM.
Turning to `CNCc1cccc2c1OCCOCCOCCNS(=O)(=O)c1ccc(cc1)-c1cnc(N)c(n1)C(=O)N2`, the GI50 is 1.27 µM in the assay on BT-549 breast; 2.83 µM in the assay on EKVX NSCLC; 1.27 µM in the assay on HOP-62 NSCLC; 1.26 µM in the assay on K-562 leukemia; 1.22 µM with KM12 colon; 1 µM in the assay on NCI-H460 lung. Besides, the GI50 is 1.73 µM with RPMI-8226 leukemia, 0.353 µM in the assay with RXF 393 renal, 1.69 µM in the assay on SK-MEL-5 melanoma and 0.543 µM in the assay on SK-OV-3 ovarian. Besides, the TGI with BT-549 breast was found to be 8.14 µM; in the assay with EKVX NSCLC, 11.2 µM; in the assay on HOP-62 NSCLC, 2.96 µM; in the assay on K-562 leukemia it was 5.46 µM; in the assay with KM12 colon, 2.98 µM; in the assay on NCI-H460 lung, 3.25 µM. Besides, the TGI in the assay with RPMI-8226 leukemia is 4.26 µM; in the assay with RXF 393 renal, 1.72 µM; with SK-MEL-5 melanoma, 3.29 µM; in the assay on SK-OV-3 ovarian, 8.01 µM.
Regarding `COc1cc(/C=C/c2cc(/C=C/c3ccc(O)c(OC)c3)n(C(=O)Nc3ccc(C)cc3)n2)ccc1O`, the GI50 in the assay on BT-549 breast is 0.306 µM; with EKVX NSCLC it was 0.992 µM; in the assay on HOP-62 NSCLC it was 0.759 µM; with K-562 leukemia, 0.359 µM; with KM12 colon it was 0.345 µM; in the assay with NCI-H460 lung, 0.339 µM. The GI50 was 0.261 µM in the assay with RPMI-8226 leukemia, 0.381 µM in the assay with RXF 393 renal, 0.306 µM in the assay on SK-MEL-5 melanoma and 0.451 µM with SK-OV-3 ovarian. Moreover, the TGI was 2.34 µM in the assay with BT-549 breast; 5.02 µM in the assay on EKVX NSCLC; 2.5 µM with HOP-62 NSCLC; 3.18 µM in the assay on KM12 colon; 1.86 µM in the assay with NCI-H460 lung; 1.34 µM with RPMI-8226 leukemia. Moreover, the TGI with RXF 393 renal was found to be 1.41 µM; in the assay with SK-MEL-5 melanoma, 1.21 µM; with SK-OV-3 ovarian, 1.79 µM.
On to `Cc1ccc(-c2nc([P+](c3ccccc3)(c3ccccc3)c3ccccc3)c(N3CCOCC3)o2)cc1`, for which the GI50 was 0.381 µM in the assay on BT-549 breast; 1.08 µM with EKVX NSCLC; 0.83 µM in the assay with HOP-62 NSCLC; 0.331 µM with K-562 leukemia; 0.368 µM with KM12 colon; 0.468 µM in the assay on NCI-H460 lung. The GI50 in the assay on RPMI-8226 leukemia is 0.251 µM; in the assay with RXF 393 renal, 0.706 µM; in the assay on SK-MEL-5 melanoma, 0.314 µM; in the assay with SK-OV-3 ovarian, 0.381 µM. Further, the TGI with BT-549 breast turned out to be 5.14 µM; in the assay on EKVX NSCLC it was 9.99 µM; with HOP-62 NSCLC, 6.61 µM; in the assay on K-562 leukemia, 4.87 µM; in the assay with KM12 colon it was 1.82 µM; in the assay on NCI-H460 lung it was 10.8 µM. Also, the TGI in the assay on RPMI-8226 leukemia turned out to be 1.16 µM; in the assay with RXF 393 renal, 4.25 µM; with SK-MEL-5 melanoma it was 1.03 µM; in the assay on SK-OV-3 ovarian, 4.32 µM.
For the molecule `COc1nc(N)nc2nc[nH]c12`, the GI50 in the assay on BT-549 breast is 580 µM; with EKVX NSCLC, 651 µM and > 759 µM; in the assay with HOP-62 NSCLC, 576 µM and 582 µM; with K-562 leukemia it was over 800 µM; in the assay on KM12 colon it was > 800 µM and 842 µM; in the assay on NCI-H460 lung, 674 µM and 588 µM. Besides, the GI50 was 677 µM in the assay on RPMI-8226 leukemia; > 800 µM and 782 µM in the assay with SK-MEL-5 melanoma; 776 µM and 508 µM in the assay on SK-OV-3 ovarian. Besides, the TGI with BT-549 breast is 500 µM and > 1000 µM; with EKVX NSCLC, > 387 µM and 800 µM and > 1000 µM; in the assay on HOP-62 NSCLC, 180 µM and 800 µM and > 923 µM; in the assay on K-562 leukemia, over 1000 µM; with KM12 colon, over 1000 µM; in the assay on NCI-H460 lung, 500 µM and 800 µM and > 1000 µM. The TGI in the assay on RPMI-8226 leukemia is 500 µM and > 1000 µM; in the assay on RXF 393 renal it was 489 µM and 800 µM and 914 µM; with SK-MEL-5 melanoma it was over 1000 µM; in the assay on SK-OV-3 ovarian, 212 µM and 800 µM and > 1000 µM.
In the case of `C#CCCCCCC(=O)N[C@H]1C=C[C@@H]2/C=C(C)/C=C/[C@@H](C)[C@H]([C@H](C)[C@H](O)[C@@H](C)NC(C)=O)OC(=O)/C=C/C=C(C)\C=C\[C@]2(C)C1`, the GI50 is under 0.004 µM in the assay with BT-549 breast; 0.0213 µM in the assay on EKVX NSCLC; 0.0107 µM with HOP-62 NSCLC; under 0.004 µM with K-562 leukemia; 0.00501 µM in the assay with KM12 colon; under 0.004 µM with NCI-H460 lung. For the same molecule, the GI50 in the assay on RPMI-8226 leukemia, with RXF 393 renal, in the assay with SK-MEL-5 melanoma and in the assay with SK-OV-3 ovarian was under 0.004 µM each time. Besides, the TGI in the assay on BT-549 breast, with EKVX NSCLC, with HOP-62 NSCLC, in the assay on K-562 leukemia, with KM12 colon and in the assay on NCI-H460 lung was over 40 µM in each case. In addition, the TGI with RPMI-8226 leukemia was 4.61 µM; in the assay on RXF 393 renal, 2.48 µM; in the assay with SK-MEL-5 melanoma, 0.00803 µM; in the assay on SK-OV-3 ovarian it was over 40 µM.
Consider `COc1cc2c(cc1OCCN1CCN(CCN3C(=O)c4cccc5cccc(c45)C3=O)CC1)N=C[C@@H]1CCCN1C2=O`, for which the GI50 was 19 µM with BT-549 breast; 21.1 µM in the assay on EKVX NSCLC; 19.7 µM in the assay on HOP-62 NSCLC; 25.2 µM in the assay with K-562 leukemia; 18.2 µM in the assay on KM12 colon; 18.1 µM in the assay with NCI-H460 lung. The GI50 is 17.1 µM in the assay on RPMI-8226 leukemia, 14.2 µM in the assay on RXF 393 renal, 16 µM with SK-MEL-5 melanoma and 27.8 µM in the assay on SK-OV-3 ovarian. Besides, the TGI was found to be 34.9 µM with BT-549 breast; 45.7 µM in the assay with EKVX NSCLC; 34.9 µM with HOP-62 NSCLC; 57.7 µM in the assay with K-562 leukemia; 39 µM in the assay on KM12 colon; 42.8 µM with NCI-H460 lung. Moreover, the TGI in the assay on RPMI-8226 leukemia turned out to be 34.8 µM; with RXF 393 renal, 32.2 µM; in the assay on SK-MEL-5 melanoma it was 29.5 µM; in the assay with SK-OV-3 ovarian, 46.5 µM.
Consider `O=C(CC1(O)C(=O)Nc2c(Cl)cc(Cl)cc21)c1cccc([N+](=O)[O-])c1` (stereo not drawn), for which the TGI with BT-549 breast was over 100 µM; with EKVX NSCLC, over 100 µM; in the assay on HOP-62 NSCLC, 98.6 µM; in the assay on K-562 leukemia, 70.2 µM; in the assay with KM12 colon, over 100 µM; with NCI-H460 lung, over 100 µM. For the same molecule, the TGI was 58.2 µM in the assay with RPMI-8226 leukemia, 62.7 µM with RXF 393 renal, 30.9 µM with SK-MEL-5 melanoma and over 100 µM in the assay with SK-OV-3 ovarian.
